Test results from patent publication US20090069623A1, “METHODS AND COMPOSITIONS FOR TREATMENT OR PREVENTION OF RADIATION-INDUCED FIBROSIS” (Virginia Commonwealth University Intellectual Property …, priority 2007, published 2009).

Tests used:
Type in all cases: cell-based, human
[1] = tested on: CTGF, fibronectin; test: Western blot of irradiated HFL-1 cells treated with HMG-CoA inhibitors; settings: 5 Gy, three days, FIG. 8C; for amount of CTGF detected in the cell lysate (CL): HMG-CoA inhibitor pretreatment 6 hours
Method: For statin treatment experiments, cells were grown overnight in 35 mm plates (6-well plates were also used in some studies) to form a 75-80% confluent monolayer. The cells were then washed with PBS, and the media was changed to SFM (800 μL).
(§1) Harvesting Culture Media and Cell Lystates. For analysis of extracellular CTGF, fibronectin, and α-tubulin, cell culture media was collected, centrifuged to remove cellular debris, aliquoted, and frozen at −70° C. until ready for use. For analysis of intracellular CTGF, fibronectin, and α-tubulin, cell lysates were harvested using 200 μL of HBSST lysis buffer (HBSS containing 1 mM MgSO4, 1 mM CaCl2, 4 mM NaHCO3, 0.5% Triton X-100, protease inhibitor cocktail). Cellular debris was removed by centrifugation.
Western blot analysis of HFL-1 whole cell proteins. […] Primary antibodies for CTGF and fibronectin were diluted at 1:600 and were incubated at 4° C. overnight with shaking. Primary antibodies for α-tubulin were diluted at 1:4,000 and were incubated at 4° C. overnight with shaking. Corresponding secondary antibodies were diluted at 1:6,000 and were incubated at room temperature for 1 hour with shaking. After washing the blot, the antibodies were detected by the enhanced chemiluminescence method (PerkinElmer Life Sciences Inc.).
Cells were harvested, and cell lysates were separated by SDS-PAGE. The separated proteins were then transferred to nitrocellulose, and Western immunoblotting was performed with antibodies specific for CTGF, fibronectin, and α-tubulin. […] As a control for protein loading, α-tubulin expression in HFL-1 cells was also determined.
Cells were harvested, and cell lysates were separated by SDS-PAGE. The separated proteins were then transferred to nitrocellulose, and Western immunoblotting was performed with antibodies specific for CTGF, fibronectin, and α-tubulin. FIG. 8C is a Western blot of HFL-1 cells exposed to radiation and treated with HMG-CoA inhibitors.

[2] = tested on: CTGF, fibronectin (FN), collagen type IV (Col IV) mRNA; test: RT-PCR of mRNA expression in HFL-1 cells treated with TGF-β1; settings: 0 to 25 ng/ml TGF-β1, six hour treatment, FIG. 5A
Method: (§2) Cell Culture and Treatment. Normal human fetal lung fibroblasts (HFL-1) were purchased from the American Type Culture Collection (ATCC Number: CCL-153) and cultured in Ham's F12K medium (American Type Culture Collection) supplemented with 2 mM L-glutamine adjusted to contain 1.5 g/L sodium bicarbonate and 10% fetal bovine serum. Cells were maintained in humidified 5% CO2 at 37° C. Human dermal fibroblasts (HDF), derived from the dermis of normal human adult skin, were purchased from Invitrogen, Inc. and cultured in Medium-106 (Invitrogen, Inc., Catalogue No. M-106-500) containing LSGS Kit (Invitrogen, Inc., Catalogue No. S-003-K) prior to use. After reaching 75-80% confluence, the medium was changed to serum free medium (SFM) for irradiation with different dose 1Gy, 2.5Gy, 5Gy, 7.5Gy and 10 Gy by using ^137Se. Alternatively, cells were treated with 5 ng/ml TGF-β1 (Sigma-Aldrich, Inc., Catalogue No. T7039) to stimulate CTGF production. The cells were then kept for 3 days in humidified 5% CO2 at 37° C. and subjected to Western immunoblot.^1 ^1What are the culture conditions (e.g., media) for M12 cells used in FIG. 3? […]
Normal human fetal lung fibroblasts (HFL-1) were treated with varying concentrations of TGF-β1, ranging from 0 ng/ml to 25 ng/ml. […] FIG. 5A is an agarose gel of RT-PCR products detected in HFL-1 cells following a six (6) hour treatment with TGF-β1.

[3] = tested on: CTGF, fibronectin; test: Western blot of HFL-1 cells treated with TGF-β1
Method: Cell Culture and Treatment. Normal human fetal lung fibroblasts (HFL-1) were purchased from the American Type Culture Collection (ATCC Number: CCL-153) and cultured in Ham's F12K medium (American Type Culture Collection) supplemented with 2 mM L-glutamine adjusted to contain 1.5 g/L sodium bicarbonate and 10% fetal bovine serum. Cells were maintained in humidified 5% CO2 at 37° C. Human dermal fibroblasts (HDF), derived from the dermis of normal human adult skin, were purchased from Invitrogen, Inc. and cultured in Medium-106 (Invitrogen, Inc., Catalogue No. M-106-500) containing LSGS Kit (Invitrogen, Inc., Catalogue No. S-003-K) prior to use. After reaching 75-80% confluence, the medium was changed to serum free medium (SFM) for irradiation with different dose 1Gy, 2.5Gy, 5Gy, 7.5Gy and 10 Gy by using ^137Se. Alternatively, cells were treated with 5 ng/ml TGF-β1 (Sigma-Aldrich, Inc., Catalogue No. T7039) to stimulate CTGF production. […] 3?
as §1
Western blot analysis of HFL-1 whole cell proteins. The primary antibodies that selectively recognized CTGF (sc-14939) and fibronectin (sc-9068) were purchased from Santa Cruz Biotechnology, Inc., and primary antibodies that selectively recognized α-tubulin (T 9026) were purchased from Sigma. […] After washing the blot, the antibodies were detected by the enhanced chemiluminescence method (PerkinElmer Life Sciences Inc.).
Protein expression in HFL-1 cells treated with TGF-β1 was also determined. […] As a control for protein loading, α-tubulin expression in HFL-1 cells was also determined.

[4] = tested on: CTGF, fibronectin (FN), collagen type IV (Col IV) mRNA; test: RT-PCR of mRNA expression in HDF cells treated with TGF-β1; settings: 0 to 25 ng/ml TGF-β1, FIG. 9A
Method: as §2
Human dermal fibroblasts (HDF) were treated with varying concentrations of TGF-β1, ranging from 0 ng/ml to 25 ng/ml, […]. […] FIG. 9A is an agarose gel of RT-PCR products detected in HDF cells following a six (6) hour treatment with TGF-β1.

[5] = tested on: CTGF, fibronectin; test: Western blot of HDF cells treated with TGF-β1; settings: three days after TGF-β1, FIG. 9B
Method: Cell Culture and Treatment. Normal human fetal lung fibroblasts (HFL-1) were purchased from the American Type Culture Collection (ATCC Number: CCL-153) and cultured in Ham's F12K medium (American Type Culture Collection) supplemented with 2 mM L-glutamine adjusted to contain 1.5 g/L sodium bicarbonate and 10% fetal bovine serum. Cells were maintained in humidified 5% CO2 at 37° C. Human dermal fibroblasts (HDF), derived from the dermis of normal human adult skin, were purchased from Invitrogen, Inc. and cultured in Medium-106 (Invitrogen, Inc., Catalogue No. M-106-500) containing LSGS Kit (Invitrogen, Inc., Catalogue No. S-003-K) prior to use. After reaching 75-80% confluence, the medium was changed to serum free medium (SFM) for irradiation with different dose 1Gy, 2.5Gy, 5Gy, 7.5Gy and 10 Gy by using ^137Se. […]
Harvesting Culture Media and Cell Lystates. For analysis of extracellular CTGF, fibronectin, and α-tubulin, cell culture media was collected, centrifuged to remove cellular debris, aliquoted, and frozen at −70° C. until ready for use. […]
Western blot analysis of HFL-1 whole cell proteins. […] After washing the blot, the antibodies were detected by the enhanced chemiluminescence method (PerkinElmer Life Sciences Inc.).
Protein expression in HDF cells treated with TGF-β1 was also determined. […] As a control for protein loading, α-tubulin expression in HFL-1 cells was also determined.

[6] = three days after TGF-β1, FIG. 5B

Molecule: CCOP(=O)(OCC)C(=Cc1cc(C(C)(C)C)c(O)c(C(C)(C)C)c1)P(=O)(OCC)OCC [SR12813]
- amount of CTGF detected in the cell lysate (CL) [1]: decreased as the amount of HMG-CoA inhibitor increased
- inhibitory effects on radiation-induced CTGF relative to other HMG-CoA inhibitors ([1]; pretreatment 6 hours): reduced relative to the inhibitory effects of simvastatin, pravastatin, lovastatin, mevinolin, and mevastatin

Molecule: CC[C@H](C)C(=O)O[C@H]1CCC=C2C=C[C@H](C)[C@H](CC[C@@H]3C[C@@H](O)CC(=O)O3)C21 (stereo partly drawn) [mevastatin, (2S)-2-methyl-butanoic acid(1S,7S,8S,8aR)-1,2,3,7,8,8a-hexahydro-7-methyl-8-[2-[(2R,4R)-tetrahydro-4-hydroxy-6-oxo-2H-pyran-2-yl]ethyl]-1-naphthale-nylester]
- amount of CTGF detected in the cell lysate (CL) [1]: decreased as the amount of HMG-CoA inhibitor increased

Molecule: CC[C@H](C)C(=O)O[C@H]1C[C@H](O)C=C2C=C[C@H](C)[C@H](CC[C@@H](O)C[C@@H](O)CC(=O)O)[C@H]21 [pravastatin, (βR,δR,1S,2S,6S,8S,8aR)-1,2,6,7,8,8a-hexahydro-β,δ,-6-trihydroxy-2-methyl-8-[(2S)-2-methyl-1-oxobutoxy]-1-naphthalene-heptanoic acid]
- amount of CTGF detected in the cell lysate (CL) [1]: decreased as the amount of HMG-CoA inhibitor increased

Molecule: (2S)-2-methyl-butanoic acid(1S,3R,7S,8S,8aR)-1,2,3,7,8,8a-hexahydro-3,7-dimethyl-8-[2-[(2R,4R)-tetrahydro-4-hydroxy-6-oxo-2H-pyran-2-yl]ethyl]-1-na-phthalenylester [mevinolin]
- amount of CTGF detected in the cell lysate (CL) [1]: decreased as the amount of HMG-CoA inhibitor increased

Molecule: TGF-β1: Cytokine used to stimulate CTGF production (Sigma-Aldrich, Inc., Catalogue No. T7039)
- expression of CTGF, FN, and Col IV mRNA [2]: increased as the concentration of TGF-β1 increased
- CTGF expression ([3]; 5 ng/ml TGF-β1 for 4 days, FIG. 1): increased
- amount of CTGF in culture medium (CM) and cell lysate (CL) [3, 6]: increased as the amount of TGF-β1 increased
- fibronectin protein expression [3, 6]: same increase in protein expression
- expression of CTGF, FN, and Col IV mRNA [4]: increased as the concentration of TGF-β1 increased
- amount of CTGF in culture medium (CM) and cell lysate (CL) [5]: increased as the amount of TGF-β1 increased
- fibronectin protein expression [5]: same increase in protein expression
